# Test results as given in US9518008B2, “(1S,2S,3S,4R)-3-[(1S)-1-acetylamino-2-ethyl-butyl]-4-uanidino-2-hydroxyl-cyclopentyl-1-carboxylic acid hydrates pharmaceutical uses thereof” (Institute of Pharmacology and Toxicology Academy of …, priority 2007, dated 2016).
# Read-outs that look alike come from different tables or passages of the source.
# What was measured:
# [1] = Determination of solubility; details: Solvent: Water; 25±2° C.
# Method: According to the invention, the solubility of the compound of the invention can be tested by using a standard solubility test method.
# While vigorously stirring for 30 seconds every 5 minutes, the dissolution of the powder was observed within 30 minutes.
# [2] = Determination of hygroscopicity (high humidity test); format: physicochemical
# Method: The hygroscopicity of the compound of the invention can be tested by a standard hygroscopicity test method. For example, the compound is stored in a sealed vessel at room temperature at a relative humidity of 92.5%, 80% or 75%, and the change in moisture content of the compound is tested by sampling at regular intervals.
# At the 5th and 10th days, the products were sampled and determined in aspect of important items relating to stability investigation. […] If the weight gain of a product due to moisture absorption was more than 5%, the product was further experimented according to the same method under a relative humidity of 75%±5%. If the weight gain of a product due to moisture absorption was less than 5%, and other items thereof under investigation met the relevant requirements, no more experiment was needed. The humidity-constant condition could be achieved by placing a saturated saline solution at the lower part of a sealed vessel, e.g., a desiccator, and a NaCl saturated solution (15.5-60° C., a relative humidity of 75%±1%) or a KNO3 saturated solution (25° C., a relative humidity of 92.5%) may be selected according to the requirement of different relative humidity.
# [3] = system: influenza virus strain FM1 (H1N1); experiment: Anti-influenza activity in infected mice (survival); format: in vivo, mice (BALB/C); details: 5 times, 14th day after infection
# Method: A virus drip is prepared typically by including 500 pfu (plaque forming unit) of mice-compliance influenza virus strain in 50 μl phosphate buffer (containing 0.42% bovine serum albumin), and then dropped into nasal cavity of mice to infect them (BALB/C, female, aged 5-6 weeks, weighted 20 g). The compound of the invention is suspended in physiological saline to obtain different doses, typically from 2.5 mg/kg to 40 mg/kg, and is administered to the mice at different time before and after the viral infection, typically administered by intraperitoneal injection for 5 times, i.e., 1 hour, and 2, 3, 4, 5 days after the viral infection. The assay is performed by using 8 or 12, typically 10 mice. The result is expressed by the ratio of the number of survival mice the 14th day after the viral infection to the number of the mice in assay.
# A solution was prepared by including 500 pfu (plaque forming unit) of mice-compliance influenza virus strain FM1 (H1N1) in 50 μl phosphate buffer (containing 0.42% bovine serum albumin), and then dropped into nasal cavity of mice (BALB/C, female, aged 5-6 weeks, weighted 20 g) to infect them with an infective dose of 23.7LD50. The compound of the invention was suspended in physiological saline, and was administered in doses of 2.5 mg/kg, 5 mg/kg, 10 mg/kg, 20 mg/kg to the mice by intraperitoneal injection for 5 times, i.e., 1 hour, and 2, 3, 4, 5 days after the viral infection, respectively. The assay was performed by 10 mice. The result was expressed by the ratio of the number of survival mice the 14th day after the viral infection to the number of the mice in assay.
# [4] = Stability of RWJ270201 in aqueous solution; format: physicochemical; details: as shown by study
# [5] = system: NA of 7 influenza A virus stains; details: 7 influenza A virus strains; cited from earlier work
# [6] = system: NA of 4 influenza B virus strains; details: cited from earlier work
# [7] = system: influenza virus strain A/HongKong/156/97 (H5N1); details: cited from earlier work
# [8] = system: influenza virus strain B/Hong Kong/5/72; details: 1 mg/kg/day; cited from earlier work
# [9] = system: influenza virus strain A/Bayern/07/95 (H1N1); details: 10 mg/kg/day; cited from earlier work
# [10] = system: influenza virus strain A/NWS/33 (H1N1); details: 10 mg/kg/day; cited from earlier work
# [11] = rats, 1000 mg/kg/day for 5 days; cited from earlier work
# [12] = Relative humidity 92.5%, 25° C.
compound,measurement,setting,value
"(1S,2S,3S,4R)-3-[(1S)-1-acetylamino-2-ethyl-butyl]-4-guanidino-2-hydroxy-cyclopentyl-1-carboxylic acid dihydrate",Solubility,[1],0.05 g/mL
same,Hygroscopicity at the 5th day,[2]; Relative humidity 75%,2.21%
same,Hygroscopicity at the 10th day,[2]; Relative humidity 75%,2.54%
same,Hygroscopicity at the 5th day,[2]; [12],2.54%
same,Hygroscopicity at the 10th day,[2]; [12],2.98%
"CCC(CC)[C@H](NC(C)=O)[C@H]1[C@H](O)[C@@H](C(=O)O)C[C@H]1NC(=N)N [Anhydrous, (1S,2S,3S,4R)-3-[(1S)-1-acetylamino-2-ethyl-butyl]-4-guanidino-2-hydroxy-cyclopentyl-1-carboxylic acid, reference compound]",Hygroscopicity at the 5th day,[2]; Relative humidity 75%,7.23%
same,Hygroscopicity at the 10th day,[2]; Relative humidity 75%,12.88%
same,Hygroscopicity at the 5th day,[2]; [12],8.38%
same,Hygroscopicity at the 10th day,[2]; [12],13.53%
same,hygroscopicity,[2]; as shown by study,easily hygroscopic
same,weight gain,"[2]; ten-day observation test, sealed vessel, room temperature, high relative humidity",about 13.53%
same,Survival number,[3]; 2.5 mg/kg intraperitoneal,5/10
same,Survival rate,[3]; 2.5 mg/kg intraperitoneal,50%
same,Survival number,[3]; 5.0 mg/kg intraperitoneal,7/10
same,Survival rate,[3]; 5.0 mg/kg intraperitoneal,70%
same,Survival number,[3]; 10 mg/kg intraperitoneal,7/10
same,Survival rate,[3]; 10 mg/kg intraperitoneal,70%
same,Survival number,[3]; 20 mg/kg intraperitoneal,9/10
same,Survival rate,[3]; 20 mg/kg intraperitoneal,90%
same,stability in aqueous solution,[4],unstable in aqueous solution
same,IC50,[5],0.1 to 1.4 nM
same,IC50,[6],0.6 to 11 nM
same,Survival rate,[7]; group of 10 mg/kg/day,up to 100%
same,death rate,[7]; infected mice,markedly reduce the death rate
same,diffusion of virus to brain tissue,[7]; infected mice,prevent the diffusion of virus to brain tissue
same,virus titer in lung tissue,[7]; infected mice,markedly reduce virus titer in lung tissue
same,Survival rate,"[7]; mouse, in vivo, 0.1 mg/kg/day",up to 70%
same,arterial oxygen saturation,[8],prevent the reduction in arterial oxygen saturation
same,death rate,[8],reduce the death rate
same,efficacy compared with oseltamivir,[8],more effective than oseltamivir
same,lung consolidation,[8],inhibit lung consolidation
same,effect on infection,[9],effectively antagonize the infection
same,death rate,[10],reduce the death rate
same,toxic side effect,[11],no toxic side effect was found
